Legend:
mouse hepatocytes = assay: Hepatocyte intrinsic clearance and metabolite profile; type: in vitro ADME; conditions: fexinidazole 10 µM
Procedure: (§1) Fexinidazole was incubated with cryopreserved hepatocytes from male CD-1 mice, male Sprague Dawley rats, male beagle dogs, male cynomolgus monkeys, and from pooled white or African-American human donor samples (purchased commercially), at concentrations of 1 µM and 10 µM. […] The incubated samples were analyzed by LC-MS after extraction into acetonitrile.
(§2) A quality control analysis of fexinidazole was performed via 1H-NMR in DMSO and LC- […]
(§3) provided by the Swiss Tropical Institute (Basel, Switzerland).
(§4) Reagents and solvents were of analytical grade and obtained from Sigma-Aldrich (St. Louis, […]
(§5) Cryopreserved hepatocytes from the male CD1 mouse, lot CSI; male Sprague Dawley rat, lot LPL; male beagle dog, lot BWX; male cynomolgus monkey, lot EHH; and pooled human samples, lot MJI, were purchased from In Vitro Technologies Inc (Baltimore, Maryland, […]
(§6) 5.4. In vitro Incubations
(§7) On the day of the experiment a 10 mM stock solution of fexinidazole in DMSO was prepared and, within 3 hours, aliquots of this freshly prepared solution, after suitable dilution, were added to the incubation matrix, to reach fexinidazole final concentrations of 1 and 10 µM. The final percentage of DMSO was 0.01% in the incubation samples for the […]
(§8) On the day of experiment, the cryopreserved hepatocytes were thawed following the detailed instructions provided by the supplier.
(§9) The number of viable cells was determined using a Trypan Blue exclusion method.
(§10) 5.4.1. Intrinsic Clearance Study […]
(§11) µM with mouse, rat, dog, monkey and human hepatocytes (300000 cells/mL for the mouse and 1 million cells/mL for the other species) in a final incubation volume of 0.75 mL […]
(§12) Incubations were performed in duplicate in a 48-well plate under shaking. Sampling was performed using an automatic liquid handling system (Multiprobe II EX, Packard). At 0, 1, 5, 10, 15, 20, 30, 60 and 120 minutes, 50 µL aliquots of the incubates were taken, then 80 µL of ice-cold acetonitrile and 20 µL of 1 µM warfarin in acetonitrile (internal standard) were added, and samples centrifuged at 2000 rpm for 20 min. The supernatant was analyzed by LC-MS/MS. […]
(§13) the medium alone at t = 0 and 120 minutes.
(§14) For the determination of phase I and phase II activity of hepatocytes, 7-ethoxycoumarin (7-EC) 1 µM, and 7-hydroxycoumarin (7-HC) 30 µM were used as positive controls and incubated under the same conditions as fexinidazole. Aliquots of incubates were taken at 0, 10, 20, 30, 60 and 120 minutes and processed as fexinidazole samples.
(§15) 5.4.2. Metabolite Profile Study
(§16) For metabolite profiling, fexinidazole was incubated at a concentration of 10 µM with mouse, rat, dog, monkey and human hepatocytes (300000 cells/mL for the mouse and 1 million cells/mL for the other species) in a final incubation volume of 2 mL Leibovitz L-15 […]
(§17) Aliquots of the incubation samples were taken at t = 0, 30 and 120 minutes; the metabolism was stopped by the addition of an equal volume of cold acetonitrile and the samples centrifuged at 1500 rpm for 20 min. The supernatant was stored at -20°C until analysis. Control incubations were performed with the compound in the medium alone […]
(§18) 5.5. Analysis of Samples for Intrinsic Clearance Determination
(§19) The analysis of the samples for intrinsic clearance determination was performed by an LC-MS/MS method, using the following conditions:
(§20) HPLC Equipment and Conditions
(§21) HPLC system Agilent 1100 binary pump (Agilent, Palo Alto, USA)
(§22) Autosampler CTC Pal (Alfatech, San Jose, USA)
(§23) Analytical column Guard Column SB-C8 4.6 x 12.5 mm, 5 µm (Zorbax)
(§24) Column temperature ambient
(§25) Mobile phase A 10 mM ammonium formate pH 4.0: acetonitrile (95:5, v:v)
(§26) Mobile phase B 10 mM ammonium formate pH 4.0: acetonitrile (5:95, v:v) […]
(§27) Gradient conditions Step Total time (min) flow (µL/min) %A % B […]
(§28) MS Equipment and Conditions
(§29) Mass spectrometer API 4000 Triple Quadrupole (MDS-Sciex, Toronto, […]
(§30) Source Turbo Ion Spray (TIS)
(§31) Ion mode Positive for fexinidazole and 7-EC.
(§32) Negative for 7-HC, 7-HC sulphate and 7-HC glucuronide.

monkey hepatocytes = assay: as above; type: in vitro ADME, cynomolgus monkey; conditions: fexinidazole 10 µM
Procedure: as §1, §2, §3, §4, §5, §6, §7, §8, §9, §10, §11, §12, §13, §14, §15, §16, §17, §18, §19, §20, §21, §22, §23, §24, §25, §26, §27, §28, §29, §30, §31, §32

[1] = Half-life after oral treatment across species; type: in vivo; conditions: mouse, rat, dog, plasma, mice, rats and dogs

Q: For `Cn1c([N+](=O)[O-])cnc1COc1ccc(S(C)(=O)=O)cc1` [Fexinidazole sulfone], which “% of total drug related material” value (mouse hepatocytes; 30 min) is on record?
A: The value was 8%.

Q: And the “% of total drug related material” value (mouse hepatocytes; 120 min)?
A: The value was 20%.

Q: And the “% of total drug related material” value (monkey hepatocytes; 30 min)?
A: Its value is 40%.

Q: And the “% of total drug related material” value (monkey hepatocytes; 120 min)?
A: The value was 58%.

Q: What about the half-life [1] of the same compound?
A: Its half-life is at most 24 h.

Q: Which results are given for `Cn1c([N+](=O)[O-])cnc1COc1ccc([S+](C)[O-])cc1` (stereo not drawn) [Fexinidazole sulfoxide]?
A: % of total drug related material (mouse hepatocytes; 30 min): 92%; % of total drug related material (mouse hepatocytes; 120 min): 80%; % of total drug related material (mouse hepatocytes; t=0): 58%; % of total drug related material (monkey hepatocytes; 30 min): 60%; % of total drug related material (monkey hepatocytes; 120 min): 42%; % of total drug related material (monkey hepatocytes; t=0): 47%; half-life [1]: 2 to 7 h

Q: With `CSc1ccc(OCc2ncc([N+](=O)[O-])n2C)cc1` [Fexinidazole, 1-methyl-2-((p-(methylthio)phenoxy)methyl)-5-nitroimidazole] as the compound, how does the “% of total drug related material” value (mouse hepatocytes; t=0) read?
A: The value was 42%.

Q: And the “% of total drug related material” value (monkey hepatocytes; t=0)?
A: Its value is 53%.

Q: And the half-life [1]?
A: Its half-life is 1 to 3 h.
